Assay results: patent EP1923473B1, “Bis-diglycolamides (BISDGA) as new extractants for lanthanides [Ln(III)] and actinides [An(III)] from aqueous high-level wastes” (Universidad Autónoma de Madrid, priority 2006, dated 2008)

Assay: Batch extraction from simulated HLLW from the PUREX process
Assay type: physicochemical
Conditions: 0.1 mol/L in TPH/1-octanol (90:10)
From the text: The feed solution used for the extraction tests is a simulated solution of an HLLW from the PUREX process, the composition of which is shown in Table 4. Table 4: Composition of the simulated HLLW-PUREX solution used for the extraction tests
The composition of the HLLW corresponds to a burn-up of 33 GWd/tHM, the generated volume of HLLW being 5000 1/t of fuel. The feed was spiked with ^241Am, ^244Cm, ^252Cf and ^152Eu. Oxalic acid and N-(2-hydroxyethyl)ethylenediaminotriacetate (HEDTA) were also added before the extraction tests.
500 µL of the aqueous and organic phases were spiked with 10 µL of a tracer solution containing 241Am, 244Cm, 252Cf and ^152Eu, and were equilibrated for 10 minutes while they were stirred vigorously in a vortex stirrer. After the separation of the phases by centrifugation, 200 µL aliquots of each phase were taken for the determination of the concentration of ^241Am and ^152Eu using a high-purity germanium spectrometer system (EG&G Ortec). The nuclides ^241Am, ^244Cm and ^252Cf were measured by alpha spectrometry with an α-Analyst device of the company Canberra-Packard GmbH, Germany.
The concentrations of the stable elements were determined by mass spectrometry with an inductively coupled plasma source (ICP-MS) in a DRC Elan 6100 device of Perkin Elmer Sciex. The aqueous phase was measured directly after the appropriate dilution. The organic phase was analyzed after having mineralized the organic matter by microwave acid digestion and subsequent dilution.
The distribution coefficients were calculated for each element according to section C).
A 0.1 mol/L solution of compound 4 in the "TPH/1-octanol (90:10)%vol" mixture was prepared. Extraction experiments were carried out with said simulated HLLW in a pure form and also adding oxalic acid and HEDTA to it. These complexing agents have shown to be effective in the DIAMEX process for the complexing of Mo, Zr (H2C2O4) and Pd (HEDTA).
Extraction experiments were carried out with said simulated HLLW in a pure form and also adding oxalic acid and HEDTA to it.

[1] = Oxalic acid 0.2 mol/L, HEDTA 0.05 mol/L, TBP 0.5 mol/L
[2] = Oxalic acid 0.2 mol/L, HEDTA 0.05 mol/L, TBP No
[3] = Oxalic acid 0.3 mol/L, HEDTA 0.05 mol/L, TBP 0.5 mol/L
[4] = Oxalic acid 0.3 mol/L, HEDTA 0.05 mol/L, TBP No
[5] = Oxalic acid No, HEDTA No, TBP 0.5 mol/L
[6] = Oxalic acid No, HEDTA No, TBP No

## 2-Dioctylcarbamoylmethoxy-N-[3-[(2-dioctylcarbamoyl-methoxy-acetylamino)methyl]benzyl]acetamide [Compound 4]
[1]
  Distribution coefficients Ag: 0.013
  Distribution coefficients Ba: 0.0002
  Distribution coefficients Cd: 0.035
  Distribution coefficients Ce: 16
  Distribution coefficients Cf-252: 702
  Distribution coefficients Cm-244: 83
  Distribution coefficients Cs: 0.000087
  Distribution coefficients Eu: 362
  Distribution coefficients Eu-152: 430
  Distribution coefficients Gd: 91
  Distribution coefficients La: 10
  Distribution coefficients Mo: 0.065
  Distribution coefficients Nd: 52
  Distribution coefficients Pd: 0.081
  Distribution coefficients Pr: 26
  Distribution coefficients Rb: 0.0082
  Distribution coefficients Rh: 0.00068
  Distribution coefficients Ru: 0.29
  Distribution coefficients Sm: 253
  Distribution coefficients Y: 1698
  Distribution coefficients Zr: 0.062
[2]
  Distribution coefficients Ag: 0.013
  Distribution coefficients Ba: 0.00019
  Distribution coefficients Cd: 0.034
  Distribution coefficients Ce: 36
  Distribution coefficients Cf-252: 2057
  Distribution coefficients Cm-244: 262
  Distribution coefficients Cs: 0.000087
  Distribution coefficients Eu: 764
  Distribution coefficients Eu-152: 379
  Distribution coefficients Gd: 239
  Distribution coefficients La: 21
  Distribution coefficients Mo: 0.087
  Distribution coefficients Nd: 142
  Distribution coefficients Pd: 0.073
  Distribution coefficients Pr: 59
  Distribution coefficients Rb: 0.0093
  Distribution coefficients Rh: 0.00086
  Distribution coefficients Ru: 0.29
  Distribution coefficients Sm: 690
  Distribution coefficients Y: 1766
  Distribution coefficients Zr: 0.096
[3]
  Distribution coefficients Ag: 0.012
  Distribution coefficients Ba: 0.0002
  Distribution coefficients Cd: 0.036
  Distribution coefficients Ce: 21
  Distribution coefficients Cf-252: 1403
  Distribution coefficients Cm-244: 133
  Distribution coefficients Cs: 0.000087
  Distribution coefficients Eu: 446
  Distribution coefficients Eu-152: 348
  Distribution coefficients Gd: 190
  Distribution coefficients La: 13.7
  Distribution coefficients Mo: 0.094
  Distribution coefficients Nd: 68
  Distribution coefficients Pd: 0.041
  Distribution coefficients Pr: 32
  Distribution coefficients Rb: 0.0081
  Distribution coefficients Rh: 0.00067
  Distribution coefficients Ru: 0.24
  Distribution coefficients Sm: 378
  Distribution coefficients Y: 1658
  Distribution coefficients Zr: 0.022
[4]
  Distribution coefficients Ag: 0.013
  Distribution coefficients Ba: 0.0002
  Distribution coefficients Cd: 0.037
  Distribution coefficients Ce: 32
  Distribution coefficients Cf-252: 1816
  Distribution coefficients Cm-244: 286
  Distribution coefficients Cs: 0.000604
  Distribution coefficients Eu: 513
  Distribution coefficients Eu-152: 553
  Distribution coefficients Gd: 258
  Distribution coefficients La: 18
  Distribution coefficients Mo: 0.115
  Distribution coefficients Nd: 120
  Distribution coefficients Pd: 0.043
  Distribution coefficients Pr: 53
  Distribution coefficients Rb: 0.0082
  Distribution coefficients Rh: 0.00069
  Distribution coefficients Ru: 0.17
  Distribution coefficients Sm: 451
  Distribution coefficients Y: 1708
  Distribution coefficients Zr: 0.099
[5]
  Distribution coefficients Ag: 39
  Distribution coefficients Ba: 0.00019
  Distribution coefficients Cd: 0.033
  Distribution coefficients Ce: 16
  Distribution coefficients Cf-252: 692
  Distribution coefficients Cm-244: 95
  Distribution coefficients Cs: 0.000082
  Distribution coefficients Eu: 327
  Distribution coefficients Eu-152: 294
  Distribution coefficients Gd: 122
  Distribution coefficients La: 10
  Distribution coefficients Mo: 0.066
  Distribution coefficients Nd: 55
  Distribution coefficients Pd: 2.6
  Distribution coefficients Pr: 26
  Distribution coefficients Rb: 0.0080
  Distribution coefficients Rh: 0.00069
  Distribution coefficients Ru: 0.27
  Distribution coefficients Sm: 233
  Distribution coefficients Y: 1773
  Distribution coefficients Zr: 295
[6]
  Distribution coefficients Ag: 37
  Distribution coefficients Ba: 0.00019
  Distribution coefficients Cd: 0.034
  Distribution coefficients Ce: 23
  Distribution coefficients Cf-252: 2079
  Distribution coefficients Cm-244: 191
  Distribution coefficients Cs: 0.000084
  Distribution coefficients Eu: 685
  Distribution coefficients Eu-152: 293
  Distribution coefficients Gd: 166
  Distribution coefficients La: 13
  Distribution coefficients Mo: 0.069
  Distribution coefficients Nd: 94
  Distribution coefficients Pd: 2.5
  Distribution coefficients Pr: 39
  Distribution coefficients Rb: 0.0078
  Distribution coefficients Rh: 0.00066
  Distribution coefficients Ru: 0.25
  Distribution coefficients Sm: 615
  Distribution coefficients Y: 1753
  Distribution coefficients Zr: 133
